Earlier results, collected in patent US20250312371A1, “CROSS-LINKED POLYMERIC CHELATORS COMPOSITIONS AND USE THEREOF” (THE UNIVERSITY OF KANSAS, priority 2021, published 2025).

relative iron binding constant (Fe(III)): 35.5
SMILES: O=C(N[C@H]1COC(=O)[C@@H](NC(=O)c2cccc(O)c2O)COC(=O)[C@@H](NC(=O)c2cccc(O)c2O)COC1=O)c1cccc(O)c1O [Enterobactin]
Log K (iron chelation): 52
